# Values quoted from earlier work in patent US10028963B2, “Methods for treating intrapulmonary infections” (priority 2011, dated 2018).
# Conditions: patients treated for nosocomial pneumonia
smiles,measurement,value
CN(C)c1cc(NC(=O)CNC(C)(C)C)c(O)c2c1C[C@H]1C[C@H]3[C@H](N(C)C)C(=O)C(C(N)=O)=C(O)[C@@]3(O)C(=O)C1=C2O [tigicycline],Mortality risk compared to other drugs,increased mortality risk
